Publication PMC9636434, “Discovery of small molecule agonists of the Relaxin Family Peptide Receptor 2” (Communications Biology, 2022)
Several values for one entry are separate records, joined by “and”; a condition that tells them apart may be missing. Equal values may be shown once.

Tests used:
human RXFP1 = biological target: T1, human RXFP1 (Homo sapiens, UniProt Q9HBX9); experiment: HTRF cAMP counter-screen in HEK293T cells expressing human RXFP1; type: cell-based; details: human RXFP1, positive control, experiments (1)-(3)
T1 construct: FLAG (N); expressed in transfected cells
T1 sequence (Q9HBX9 1-757): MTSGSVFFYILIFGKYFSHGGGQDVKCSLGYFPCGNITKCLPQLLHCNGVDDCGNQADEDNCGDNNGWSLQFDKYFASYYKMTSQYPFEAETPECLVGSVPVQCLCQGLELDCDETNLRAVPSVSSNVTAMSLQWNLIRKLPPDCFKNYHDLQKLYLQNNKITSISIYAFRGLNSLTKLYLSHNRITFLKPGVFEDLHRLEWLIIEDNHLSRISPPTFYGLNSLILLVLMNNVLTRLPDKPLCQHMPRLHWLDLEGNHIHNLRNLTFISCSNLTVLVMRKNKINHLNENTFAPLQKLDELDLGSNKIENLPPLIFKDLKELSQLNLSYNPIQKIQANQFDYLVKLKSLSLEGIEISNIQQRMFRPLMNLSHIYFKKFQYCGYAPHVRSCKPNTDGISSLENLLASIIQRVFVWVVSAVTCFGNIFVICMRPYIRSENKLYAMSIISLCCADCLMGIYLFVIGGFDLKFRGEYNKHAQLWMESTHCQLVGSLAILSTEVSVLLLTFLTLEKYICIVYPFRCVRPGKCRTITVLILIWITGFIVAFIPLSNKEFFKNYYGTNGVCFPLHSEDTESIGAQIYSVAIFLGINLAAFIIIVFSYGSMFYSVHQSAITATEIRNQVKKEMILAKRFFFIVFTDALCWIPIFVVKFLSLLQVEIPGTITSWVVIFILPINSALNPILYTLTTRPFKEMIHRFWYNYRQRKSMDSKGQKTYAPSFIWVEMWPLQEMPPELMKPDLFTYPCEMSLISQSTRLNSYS
Protocol: (§1) The HTRF Gs dynamic cAMP assay kit (CisBio, Bedford, MA) was used to measure intracellular cAMP accumulation in HEK293T cells (ATCC, Manassas, VA)[56]. […] The cell stock was verified mycoplasma free and authenticated by ATCC. Transient transfection was accomplished by treating cells in a 6-well plate with a mixture of 2 μg plasmid and 6 μL Lipofectamine 2000 (Invitrogen, Waltham, MA) per manufacturer’s protocol and incubating overnight. For cAMP measurement in 96-well format, HEK293T cells stably transfected with human RXFP2 (HEK-RXFP2), human RXFP1 (HEK-RXFP1), mouse Rxfp1 (HEK-Rxfp1) or transiently transfected with human RXFP1-RXFP2 chimeric receptors were seeded between 7500 and 30,000 cells per well, depending on cell line responsiveness, in serum-free DMEM medium and incubated overnight at 37 °C, 5% CO2. After 18 h, cells were treated with a titration of compound, 2 μM forskolin, or DMSO vehicle. Control wells were also treated with a titration of INSL3 (Phoenix Pharmaceuticals, Burlingame, CA) or human recombinant relaxin 2 (Peprotech, Cranbury, NJ). For the RXFP2 antagonist experiment, cells were co-treated with 0.28 μM compound or 30 nM INSL3 and a titration of the INSL3 B dimer antagonist[38],[39]. For the INSL3 allosteric modulation experiment, cells were co-treated with 0.025, 0.0025, or 0.00025 μM of compound and a titration of INSL3. Cells were incubated for 1 h at 37 °C, 5% CO2, and then kit cAMP-d2 and anti-cAMP antibody were added per manufacturer protocol. Plates were incubated for 1 h at room temperature and the signal was read on a CLARIOstar plate reader (BMG Labtech, Ortenberg, Germany) at 665 and 620 nm emission wavelengths. […]
(§2) receptors. HTRF cAMP counter-screen of RXFP2 agonists in HEK293T cells expressing a human RXFP1 and b mouse RXFP1. Relaxin 2 was used as positive control for RXFP1 receptor activation. Results are expressed as mean ± SEM of 3

mouse RXFP1 = biological target: T2, mouse RXFP1 (Mus musculus, UniProt Q6R6I7); experiment: HTRF cAMP counter-screen in HEK293T cells expressing mouse RXFP1; type: cell-based; details: mouse RXFP1, positive control, experiments (1)-(3)
T2 construct: FLAG (N); expressed in transfected cells
T2 sequence (Q6R6I7 1-758): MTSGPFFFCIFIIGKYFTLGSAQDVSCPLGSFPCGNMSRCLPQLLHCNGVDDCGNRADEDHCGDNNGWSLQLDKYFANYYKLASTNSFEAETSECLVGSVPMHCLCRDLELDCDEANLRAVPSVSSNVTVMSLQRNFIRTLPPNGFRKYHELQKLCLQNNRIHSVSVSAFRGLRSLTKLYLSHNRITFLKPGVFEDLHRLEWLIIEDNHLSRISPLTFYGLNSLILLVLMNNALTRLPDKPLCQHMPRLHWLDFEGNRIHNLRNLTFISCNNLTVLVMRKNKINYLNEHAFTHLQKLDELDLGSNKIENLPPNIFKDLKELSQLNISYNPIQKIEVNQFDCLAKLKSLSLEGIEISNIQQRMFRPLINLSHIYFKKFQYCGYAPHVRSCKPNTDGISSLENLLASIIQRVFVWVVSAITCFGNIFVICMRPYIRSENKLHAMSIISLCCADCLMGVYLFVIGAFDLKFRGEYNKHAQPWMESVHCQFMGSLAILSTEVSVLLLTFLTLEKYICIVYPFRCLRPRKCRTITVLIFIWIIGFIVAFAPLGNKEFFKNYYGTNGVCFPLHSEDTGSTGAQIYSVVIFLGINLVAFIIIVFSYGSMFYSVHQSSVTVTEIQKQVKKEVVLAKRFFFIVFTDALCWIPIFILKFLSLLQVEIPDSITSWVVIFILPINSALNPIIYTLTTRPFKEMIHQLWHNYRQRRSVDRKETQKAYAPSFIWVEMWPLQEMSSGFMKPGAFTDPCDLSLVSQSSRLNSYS
Protocol: as §1, §2

[1] = biological target: chimera RXFP2-1 (extracellular domain of RXFP2, transmembrane domain of RXFP1) (human); design: EC50 of the cAMP response (HTRF cAMP assay, transiently transfected HEK293T cells): unit not given beside the values

Substance | % Eff (cAMP) (human RXFP1; Log [M] -7) | % Eff (cAMP) (human RXFP1; Log [M] -8) | % Eff (cAMP) (human RXFP1; Log [M] -9) | % Eff (cAMP) (human RXFP1; Log [M] -11) | % Eff (cAMP) (mouse RXFP1; Log [M] -7) | % Eff (cAMP) (mouse RXFP1; Log [M] -8) | % Eff (cAMP) (mouse RXFP1; Log [M] -9) | % Eff (cAMP) (mouse RXFP1; Log [M] -10) | % Eff (cAMP) (mouse RXFP1; Log [M] -11) | EC50 of the cAMP response (HTRF cAMP assay, transiently transfected HEK293T cells) [1] | Emax of the cAMP response (HTRF cAMP assay, transiently transfected HEK293T cells; normalized to 2 µM FSK as 100% efficacy) [1]
Relaxin | 514.186% and 485.16% and 431.341% | 600.088% and 494.195% and 523.956% | 370.096% and 250.531% and 374.784% | -0.2294% and 1.737% and 3.775% | 488.966% and 468.543% and 521.705% | 318.502% and 312.701% and 407.269% | 105.124% and 102.88% and 64.6466% | 7.396% and 8.915% and 6.254% | 0.7539% and 1.08% and 0.2993% | – | –
insulin-like factor 3 peptide (INSL3) (ligand) | – | – | – | – | – | – | – | – | – | 0.74 | 92.3
